From BindingDB's records for doi:10.1016/j.bioorg.2010.11.002 (University of Catania, 2011)

Experiments:
Collagenase 3 = Collagenase 3 (Homo sapiens, UniProt P45452); test: Fluorimetric Assay; conditions: pH 7; 25 °C
Stromelysin-1 = Stromelysin-1 (Homo sapiens, UniProt P08254); test: Fluorimetric Assay; conditions: pH 7; 25 °C
Sequence of Stromelysin-1 (P08254 whole entry): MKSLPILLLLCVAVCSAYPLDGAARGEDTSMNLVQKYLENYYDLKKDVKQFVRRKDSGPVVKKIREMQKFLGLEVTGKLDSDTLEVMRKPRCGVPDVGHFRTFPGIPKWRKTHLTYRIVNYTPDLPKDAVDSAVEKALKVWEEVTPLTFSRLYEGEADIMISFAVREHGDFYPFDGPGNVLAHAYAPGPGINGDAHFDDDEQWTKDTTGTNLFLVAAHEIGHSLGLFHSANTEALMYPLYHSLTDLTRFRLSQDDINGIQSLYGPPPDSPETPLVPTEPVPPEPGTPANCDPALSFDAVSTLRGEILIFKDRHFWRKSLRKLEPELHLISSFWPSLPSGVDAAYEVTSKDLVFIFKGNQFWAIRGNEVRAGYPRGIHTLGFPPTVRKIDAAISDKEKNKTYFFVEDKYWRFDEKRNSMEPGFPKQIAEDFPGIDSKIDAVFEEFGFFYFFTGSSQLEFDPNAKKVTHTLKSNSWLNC

SMILES | IC50 (Collagenase 3) | IC50 (Stromelysin-1)
O=C1N/C(=N/c2nsc3ccccc23)S/C1=C/c1ccccc1 [2-(benzo[d]isothiazol-3-ylimino)-5-benzylidenethiazolidin-4-one, 2b] | 32 µM | 
Oc1csc(Nc2nc3ccccc3s2)n1 [2-(benzo[d]-thiazol-2-ylimino)-thiazolidin-4-one, 1a] |  | 36.7 µM
